Drawing on patent publication US20210221866A1, “PROTEASE-RESISTANT LIPIDATED GLP-1 ANALOGS” (MEDIMMUNE LIMITED, priority 2015, published 2021), this text covers EC50 for seven compounds.

For the assay, the target named is T1, human GLP-1 receptor (GLP-1R) (Homo sapiens, UniProt P43220).
T1 construct: expressed in transfected cells; host or cells: HEK293 cells or CHO cells
Description: cAMP assay, human GLP-1R cells. It is filed as cell-based. As for the experimental part:
Sample dilutions are made in duplicate.
A frozen cryo-vial of cells expressing the receptor of interest is thawed rapidly in a water-bath, transferred to pre-warmed assay buffer and spun at 240×g for 5 minutes. Cells are re-suspended in assay buffer at a batch-dependent optimized concentration (e.g. hGCGR cells at 2×10^5 cells/ml, hGLP-1R and hGIPR cells at 1×10^5 cells/ml).
To this, 5 μL cell suspension is added and the plates incubated at room temperature for 30 minutes.
cAMP levels are measured using a commercially available cAMP dynamic 2 HTRF kit (Cisbio, Cat #62AM4PEJ), following the two step protocol as per manufacturer's recommendations. In brief; anti-cAMP cryptate (donor fluorophore) and cAMP-d2 (acceptor fluorophore) are made up separately by diluting each 1/20 in conjugate & lysis buffer provided in the kit. 5 μL anti-cAMP cryptate is added to wells of the assay plate, and 5 μL cAMP-d2 is added to wells except non-specific binding (NSB) wells, to which conjugate and lysis buffer are added. […] EC50 values of the synthetic peptides determined in cAMP assays are then determined.
Data is transformed to % Delta F as described in the manufacturer's guidelines and analyzed by 4-parameter logistic fit to determine EC50 values. […] To compare the balance of activities at the GLP-1R and GCGR between different peptides and across different conditions, these can be correlated, where the EC50's are related to those of comparator peptides.
(Cyclic AMP is a second messenger, typically raised through Gs and lowered through Gi signalling.)

Setting [1] is: cAMP activity, mean of n1 and n2, read-out: Mean pM GLP-1R.
[2] abbreviates: cAMP activity, second determination (n2), read-out: Primary assay EC50 GLP-1R n2.
Where [3] appears, read: Table 11, tris-lipidated peptides, mean of n1 and n2, read-out: Primary assay EC50 Mean pM GLP-1R.

Where two headings read alike, the source gives them in different places. Numbered stars: 1 amine (or outer) side, 2 acyl side, 3 side chain; on linkers, the order of the positions; unused ones are H or OH. Square brackets hold non-standard residues; d marks the D form. Side chains are listed from the residue outwards. Peptide text beside a SMILES is read from it. * marks the point of attachment. C18 diacid = O=C(O)CCCCCCCCCCCCCCCCC(=O)*; γGlu = O=C(O)[C@H](CCC(=O)[*:2])N[*:1]; αMeF = C[C@](N)(Cc1ccccc1)C(=O)O; αMeK = C[C@](N)(CCCCN)C(=O)O; Lauroyl = CCCCCCCCCCCC(=O)*; αMeS = C[C@](N)(CO)C(=O)O; AEEA = NCCOCCOCC(=O)O; Aib = CC(C)(N)C(=O)O

T1 sequence (P43220 24-463): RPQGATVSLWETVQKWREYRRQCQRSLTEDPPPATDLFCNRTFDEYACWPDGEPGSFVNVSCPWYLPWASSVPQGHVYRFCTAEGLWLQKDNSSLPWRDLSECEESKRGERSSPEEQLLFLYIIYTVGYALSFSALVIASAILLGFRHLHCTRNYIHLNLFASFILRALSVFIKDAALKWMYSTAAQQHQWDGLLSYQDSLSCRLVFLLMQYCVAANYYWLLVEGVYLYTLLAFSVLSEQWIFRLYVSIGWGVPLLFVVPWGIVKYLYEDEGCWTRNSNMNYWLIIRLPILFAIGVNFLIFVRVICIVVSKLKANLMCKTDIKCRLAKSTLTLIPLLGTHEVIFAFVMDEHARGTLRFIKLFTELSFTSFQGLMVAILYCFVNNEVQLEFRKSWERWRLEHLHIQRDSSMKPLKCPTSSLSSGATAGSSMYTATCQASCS

As to `CC[C@H](C)[C@H](NC(=O)[C@](C)(Cc1ccccc1)NC(=O)[C@H](CCC(=O)O)NC(=O)[C@](C)(CCCCN)NC(=O)[C@H](C)NC(=O)[C@H](C)NC(=O)[C@H](CCC(=O)O)NC(=O)CNC(=O)[C@H](CCC(=O)O)NC(=O)[C@H](CC(C)C)NC(=O)[C@](C)(Cc1ccccc1)NC(=O)[C@H](CO)NC(=O)[C@](C)(CO)NC(=O)[C@@H](NC(=O)[C@H](CC(=O)O)NC(=O)[C@H](CCC(=O)O)NC(=O)[C@@H](NC(=O)[C@](C)(Cc1ccccc1)NC(=O)[C@H](CO)NC(=O)CNC(=O)[C@H](CCC(=O)O)NC(=O)C(C)(C)NC(=O)[C@@H](N)Cc1c[nH]cn1)[C@@H](C)O)C(C)C)C(=O)N[C@@H](C)C(=O)N[C@@](C)(Cc1ccccc1)C(=O)N[C@H](C(=O)N[C@H](C(=O)N[C@@](C)(CCCCN)C(=O)NCC(=O)NCC(N)=O)C(C)C)C(C)C` [compound 28] (H-H[Aib]EGS[αMeF]TEDV[αMeS]S[αMeF]LEGEAA[αMeK]E[αMeF]IA[αMeF]VV[αMeK]GG-NH2; N-terminus assumed), the EC50 is, setting by setting: under setting [1], 4620 pM; under setting [2], 4700 pM.
`CCCCCCCCCCCC(=O)N[C@@H](CCC(=O)NCCOCCOCC(=O)NCCOCCOCC(=O)NCCCC[C@H](NC(=O)CNC(=O)[C@H](CCC(=O)O)NC(=O)[C@H](CC(C)C)NC(=O)[C@H](Cc1ccc(O)cc1)NC(=O)[C@H](CO)NC(=O)[C@H](CO)NC(=O)[C@H](CCCCNC(=O)COCCOCCNC(=O)COCCOCCNC(=O)CC[C@H](NC(=O)CCCCCCCCCCC)C(=O)O)NC(=O)[C@H](CC(=O)O)NC(=O)[C@H](CO)NC(=O)[C@@H](NC(=O)[C@](C)(Cc1ccccc1)NC(=O)[C@H](CO)NC(=O)CNC(=O)[C@H](CCC(=O)O)NC(=O)C(C)(C)NC(=O)[C@@H](N)Cc1c[nH]cn1)[C@@H](C)O)C(=O)N[C@@H](C)C(=O)N[C@@H](C)C(=O)N[C@@](C)(CCCCN)C(=O)N[C@@H](CCC(=O)O)C(=O)N[C@@H](Cc1ccccc1)C(=O)N[C@H](C(=O)N[C@@H](C)C(=O)N[C@@H](Cc1ccccc1)C(=O)N[C@@H](CCCCNC(=O)COCCOCCNC(=O)COCCOCCNC(=O)CC[C@H](NC(=O)CCCCCCCCCCC)C(=O)O)C(=O)N[C@H](C(=O)N[C@@H](CCC(=O)O)C(=O)NCC(=O)NCC(N)=O)C(C)C)[C@@H](C)CC)C(=O)O` [compound 472] (H-H[Aib]EGS[αMeF]TSDK([AEEA-AEEA-γGlu-Lauroyl])SSYLEGK([AEEA-AEEA-γGlu-Lauroyl])AA[αMeK]EFIAFK([AEEA-AEEA-γGlu-Lauroyl])VEGG-NH2; N-terminus assumed): under setting [3], the EC50 came out at 287 pM.
As to `CCCCCCCCCCCC(=O)N[C@@H](CCC(=O)NCCOCCOCC(=O)NCCOCCOCC(=O)NCCCC[C@H](NC(=O)CNC(=O)[C@H](CCC(=O)O)NC(=O)[C@H](CC(C)C)NC(=O)[C@H](CCCCNC(=O)COCCOCCNC(=O)COCCOCCNC(=O)CC[C@H](NC(=O)CCCCCCCCCCC)C(=O)O)NC(=O)[C@H](CO)NC(=O)[C@](C)(CO)NC(=O)[C@@H](NC(=O)[C@H](CC(=O)O)NC(=O)[C@H](CO)NC(=O)[C@@H](NC(=O)[C@](C)(Cc1ccccc1)NC(=O)[C@H](CO)NC(=O)CNC(=O)[C@H](CCC(=O)O)NC(=O)C(C)(C)NC(=O)[C@@H](N)Cc1c[nH]cn1)[C@@H](C)O)C(C)C)C(=O)N[C@@H](C)C(=O)N[C@@H](C)C(=O)N[C@@](C)(CCCCN)C(=O)N[C@@H](CCC(=O)O)C(=O)N[C@@H](Cc1ccccc1)C(=O)N[C@H](C(=O)N[C@@H](C)C(=O)N[C@@H](Cc1ccccc1)C(=O)N[C@@H](CCCCNC(=O)COCCOCCNC(=O)COCCOCCNC(=O)CC[C@H](NC(=O)CCCCCCCCCCC)C(=O)O)C(=O)N[C@H](C(=O)N[C@@H](CCC(=O)O)C(=O)NCC(=O)NCC(N)=O)C(C)C)[C@@H](C)CC)C(=O)O` [compound 480] (H-H[Aib]EGS[αMeF]TSDV[αMeS]SK([AEEA-AEEA-γGlu-Lauroyl])LEGK([AEEA-AEEA-γGlu-Lauroyl])AA[αMeK]EFIAFK([AEEA-AEEA-γGlu-Lauroyl])VEGG-NH2; N-terminus assumed), the EC50 under setting [3] is 57.5 pM.
Regarding `CC[C@H](C)[C@H](NC(=O)[C@](C)(Cc1ccccc1)NC(=O)[C@H](CCC(=O)O)NC(=O)[C@](C)(CCCCN)NC(=O)[C@H](C)NC(=O)[C@H](C)NC(=O)[C@H](CCC(=O)O)NC(=O)CNC(=O)[C@H](CCC(=O)O)NC(=O)[C@H](CC(C)C)NC(=O)[C@](C)(Cc1ccccc1)NC(=O)[C@H](CO)NC(=O)[C@](C)(CO)NC(=O)[C@@H](NC(=O)[C@H](CC(=O)O)NC(=O)[C@H](CO)NC(=O)[C@@H](NC(=O)[C@](C)(Cc1ccccc1)NC(=O)[C@H](CO)NC(=O)CNC(=O)[C@H](CCC(=O)O)NC(=O)C(C)(C)NC(=O)[C@@H](N)Cc1c[nH]cn1)[C@@H](C)O)C(C)C)C(=O)N[C@@H](C)C(=O)N[C@@](C)(Cc1ccccc1)C(=O)N[C@H](C(=O)N[C@H](C(=O)N[C@@](C)(CCCCN)C(=O)N[C@@H](CCCCNC(=O)COCCOCCNC(=O)COCCOCCNC(=O)CC[C@H](NC(=O)CCCCCCCCCCCCCCCCC(=O)O)C(=O)O)C(=O)NCC(N)=O)C(C)C)C(C)C` [compound 100] (H-H[Aib]EGS[αMeF]TSDV[αMeS]S[αMeF]LEGEAA[αMeK]E[αMeF]IA[αMeF]VV[αMeK]K([AEEA-AEEA-γGlu-C18 diacid])G-NH2; N-terminus assumed), under setting [1], the EC50 came out at 15 pM.
In the case of `CCCCCCCCCCCC(=O)N[C@@H](CCC(=O)NCCOCCOCC(=O)NCCOCCOCC(=O)NCCCC[C@H](NC(=O)[C@H](CC(=O)O)NC(=O)[C@H](CO)NC(=O)[C@@H](NC(=O)[C@](C)(Cc1ccccc1)NC(=O)[C@H](CO)NC(=O)CNC(=O)[C@H](CCC(=O)O)NC(=O)C(C)(C)NC(=O)[C@@H](N)Cc1c[nH]cn1)[C@@H](C)O)C(=O)N[C@@H](CO)C(=O)N[C@@H](CO)C(=O)N[C@@H](Cc1ccc(O)cc1)C(=O)N[C@@H](CC(C)C)C(=O)N[C@@H](CCC(=O)O)C(=O)NCC(=O)N[C@@H](CCC(=O)O)C(=O)N[C@@H](C)C(=O)N[C@@H](C)C(=O)N[C@@](C)(CCCCN)C(=O)N[C@@H](CCCCNC(=O)COCCOCCNC(=O)COCCOCCNC(=O)CC[C@H](NC(=O)CCCCCCCCCCC)C(=O)O)C(=O)N[C@@H](Cc1ccccc1)C(=O)N[C@H](C(=O)N[C@@H](C)C(=O)N[C@@H](Cc1ccccc1)C(=O)N[C@@H](CCCCNC(=O)COCCOCCNC(=O)COCCOCCNC(=O)CC[C@H](NC(=O)CCCCCCCCCCC)C(=O)O)C(=O)N[C@H](C(=O)N[C@@H](CCC(=O)O)C(=O)NCC(=O)NCC(N)=O)C(C)C)[C@@H](C)CC)C(=O)O` [compound 474] (H-H[Aib]EGS[αMeF]TSDK([AEEA-AEEA-γGlu-Lauroyl])SSYLEGEAA[αMeK]K([AEEA-AEEA-γGlu-Lauroyl])FIAFK([AEEA-AEEA-γGlu-Lauroyl])VEGG-NH2), under setting [3], the EC50 amounted to 290 pM.
In the case of `CC[C@H](C)[C@H](NC(=O)[C@](C)(Cc1ccccc1)NC(=O)[C@H](CCC(=O)O)NC(=O)[C@](C)(CCCCN)NC(=O)[C@H](C)NC(=O)[C@H](C)NC(=O)[C@H](CCC(=O)O)NC(=O)[C@H](CCCCNC(=O)COCCOCCNC(=O)COCCOCCNC(=O)CC[C@H](NC(=O)CCCCCCCCCCCCCCCCC(=O)O)C(=O)O)NC(=O)[C@H](CCC(=O)O)NC(=O)[C@H](CC(C)C)NC(=O)[C@](C)(Cc1ccccc1)NC(=O)[C@H](CO)NC(=O)[C@](C)(CO)NC(=O)[C@@H](NC(=O)[C@H](CC(=O)O)NC(=O)[C@H](CO)NC(=O)[C@@H](NC(=O)[C@](C)(Cc1ccccc1)NC(=O)[C@H](CO)NC(=O)CNC(=O)[C@H](CCC(=O)O)NC(=O)C(C)(C)NC(=O)[C@@H](N)Cc1c[nH]cn1)[C@@H](C)O)C(C)C)C(=O)N[C@@H](C)C(=O)N[C@@](C)(Cc1ccccc1)C(=O)N[C@H](C(=O)N[C@H](C(=O)N[C@@](C)(CCCCN)C(=O)NCC(=O)NCC(N)=O)C(C)C)C(C)C` [compound 113] (H-H[Aib]EGS[αMeF]TSDV[αMeS]S[αMeF]LEK([AEEA-AEEA-γGlu-C18 diacid])EAA[αMeK]E[αMeF]IA[αMeF]VV[αMeK]GG-NH2; N-terminus assumed), the EC50 reads like this: under setting [1], 18 pM; under setting [2], 17.4 pM.
Taken in the same sequence, the figures for `CC[C@H](C)[C@H](NC(=O)[C@](C)(Cc1ccccc1)NC(=O)[C@H](CCC(=O)O)NC(=O)[C@H](CCCCNC(=O)COCCOCCNC(=O)COCCOCCNC(=O)CCCCCCCCCCCCCCCCC(=O)O)NC(=O)[C@H](C)NC(=O)[C@H](C)NC(=O)[C@H](CCC(=O)O)NC(=O)CNC(=O)[C@H](CCC(=O)O)NC(=O)[C@H](CC(C)C)NC(=O)[C@](C)(Cc1ccccc1)NC(=O)[C@H](CO)NC(=O)[C@](C)(CO)NC(=O)[C@@H](NC(=O)[C@H](CC(=O)O)NC(=O)[C@H](CO)NC(=O)[C@@H](NC(=O)[C@](C)(Cc1ccccc1)NC(=O)[C@H](CO)NC(=O)CNC(=O)[C@H](CCC(=O)O)NC(=O)C(C)(C)NC(=O)[C@@H](N)Cc1c[nH]cn1)[C@@H](C)O)C(C)C)C(=O)N[C@@H](C)C(=O)N[C@@](C)(Cc1ccccc1)C(=O)N[C@H](C(=O)N[C@H](C(=O)N[C@@](C)(CCCCN)C(=O)NCC(=O)NCC(N)=O)C(C)C)C(C)C` [compound 162] were 54 pM and 55 pM.
